Reference: patent publication EP4678635A1, “CRYSTAL FORM OF NIROGACESTAT DIHYDROBROMATE, AND PREPARATION METHOD THEREFOR AND USE THEREOF” (Crystal Pharmaceutical (Suzhou) Co., Ltd., priority 2023, dated 2024)
Converted amounts (≈) assume the structure as drawn. Read-outs that look alike come from different tables or passages of the source.

Assays:
Format in all cases: physicochemical
[1] = Kinetic solubility in FaSSIF and FeSSIF
Description: Table 2 [table] When solubility test is used to predict the in vivo performance of a drug, it is critical to simulate in vivo conditions as closely as possible. For oral drugs, FaSSIF and FeSSIF can be used to simulate the conditions in vivo and predict the effect of eating. Solubilities in these media are closer to those in vivo. Appropriate amounts of Form CSVI were suspended in FaSSIF and FeSSIF at 37 °C. After equilibration for 0.5 h, the suspensions were filtered and the concentration (mg/mL) of Compound I in each filtrate was measured by HPLC. […]

[2] = Compressibility (tensile strength of tablets, manual tablet press); conditions: about 60 mg, Φ6mm round tooling, pressure of 3 kN, 24 h at RT; T=2H/πDL
Description: (§1) Tablets were prepared by an ENERPAC manual tablet press. About 60 mg of Form CSV and the prior art Form A were separately added to Φ6mm round tooling punches and compressed into tablets under a pressure of 3 kN. The tablets were left at RT for 24 h to allow complete elastic recovery. The diameter (D) and thickness (L) were measured using a vernier caliper, and their radial crushing strength (hardness, H) was determined using a tablet hardness tester. The tensile strength (T) of the powders was calculated with the following formula: T=2H/πDL. […] Under a certain force, higher tensile strength indicates better compressibility.
as §1, with “CSVI” for “CSV”

Bulk and tapped density = conditions: for Bulk density: about 500 mg in 5-mL graduated cylinder, before tapping; for Tapped density: tapped 1250 times
Description: About 500 mg of sample was gently loaded into a 5-mL graduated cylinder to measure the bulk volume before tapping. The sample was then tapped 1250 times on a ZS-2E tap density tester to achieve a tapped state, and the tapped volume was recorded. The bulk density ρ0 and tapped density ρf were calculated accordingly.

[3] = Storage stability (crystalline form by XRPD, purity by HPLC); conditions: for Purity (%): HPLC, initial purity 99.51; for Crystalline form / remains stable for at least / Solid form: sealed container; for Crystalline form / Solid form: XRPD; for Crystalline form: initial Form CSV; for Solid form: initial Form CSVI
Description: (§2) An appropriate amount of Form CSV was packaged in a sealed container and then stored under the conditions of 25 °C/60%RH, 40 °C/75%RH and 60 °C/75%RH, respectively. Crystalline form and purity were analyzed by XRPD and HPLC. The results are listed in Table 5, and the XRPD pattern overlay is depicted in Figure 4. […] Meanwhile, Form CSV remains stable for at least 2 months under 60 °C/75%RH condition, indicating Form CSV has good stability under stress condition as well.
as §2, with “CSVI” for “CSV”, “was” for “and purity were”, “XRPD.” for “XRPD and HPLC.”, “9,” for “5,”, “11.” for “4.”

[4] = Stability under mechanical force: tableting under different pressures, XRPD; conditions: Φ6mm round tooling punch
Description: An appropriate amount of Form CSV was compressed into tablets under different pressures with a Φ6mm round tooling punch. XRPD tests were conducted before and after compression. The test results are listed in Table 6, and the XRPD overlay is depicted in Figure 5.
An appropriate amount of Form CSVI was compressed into tablets under different pressures with a Φ6mm round tooling punch. XRPD tests were conducted before and after compression. The test results are listed in Table 10, and the XRPD overlay is depicted in Figure 12.

[5] = Stability under mechanical force: ball milling, XRPD; conditions: ball milling at 500 rpm for 5 minutes
Description: An appropriate amount of Form CSV was subjected to ball milling at 500 rpm for 5 minutes using a ball mill. […]
An appropriate amount of Form CSVI was subjected to ball milling at 500 rpm for 5 minutes using a ball mill. […]

| average tensile strength [2] [MPa] | remains stable for at least ([3]; 25 °C/60%RH) | remains stable for at least ([3]; 40 °C/75%RH) | remains stable for at least ([3]; 60 °C/75%RH) | After tableting (crystalline form) ([4]; Pressure 5 kN) | After tableting (crystalline form) ([4]; Pressure 10 kN) | After tableting (crystalline form) ([4]; Pressure 20 kN) | crystalline form before and after ball milling [5] | Compound | other results |
| --- | --- | --- | --- | --- | --- | --- | --- | --- | --- |
| 0.37 | – | – | – | – | – | – | – | CCC[C@H](N[C@H]1CCc2cc(F)cc(F)c2C1)C(=O)Nc1cn(C(C)(C)CNCC(C)(C)C)cn1 [Form A, (S)-2-(((S)-6,8-difluoro-1,2,3,4-tetrahydronaphthalen-2-yl)amino)-N-(1-(2-methyl-1-(neopentylamino)propan-2-yl)-1H-imidazol-4-yl) pentanamide, reference compound] | solubility at 0.5 h ([1]; fassif, solubility (concentration of Compound I in filtrate)): 4.2 mg/mL (≈ 8.58 mM); solubility at 0.5 h ([1]; solubility (concentration of Compound I in filtrate)): 7.5 mg/mL (≈ 15.3 mM); Bulk density (Bulk and tapped density; listed as The prior art Form A): 0.251 g/mL; Tapped density (Bulk and tapped density; listed as The prior art Form A): 0.282 g/mL |
| 0.55 | at least 6 months | at least 6 months | at least 2 months | Form CSV | Form CSV | Form CSV | remained unchanged | CCC[C@H](N[C@H]1CCc2cc(F)cc(F)c2C1)C(=O)Nc1cn(C(C)(C)CNCC(C)(C)C)cn1 [Form CSV, (S)-2-(((S)-6,8-difluoro-1,2,3,4-tetrahydronaphthalen-2-yl)amino)-N-(1-(2-methyl-1-(neopentylamino)propan-2-yl)-1H-imidazol-4-yl) pentanamide] | Bulk density (Bulk and tapped density): 0.422 g/mL; Tapped density (Bulk and tapped density): 0.506 g/mL; Purity (%) ([3]; 25 °C/60%RH, 6 months): 99.52%; Crystalline form ([3]; 25 °C/60%RH, 6 months): Form CSV; Purity (%) ([3]; 40 °C/75%RH, 6 months): 99.50%; Crystalline form ([3]; 40 °C/75%RH, 6 months): Form CSV; Purity (%) ([3]; 60 °C/75%RH, 2 months): 99.54%; Crystalline form ([3]; 60 °C/75%RH, 2 months): Form CSV |
| 0.907 | at least 8 months | at least 8 months | at least 2 months | Form CSVI | Form CSVI | Form CSVI | remained unchanged | CCC[C@H](N[C@H]1CCc2cc(F)cc(F)c2C1)C(=O)Nc1cn(C(C)(C)CNCC(C)(C)C)cn1 [Form CSVI, (S)-2-(((S)-6,8-difluoro-1,2,3,4-tetrahydronaphthalen-2-yl)amino)-N-(1-(2-methyl-1-(neopentylamino)propan-2-yl)-1H-imidazol-4-yl) pentanamide] | solubility at 0.5 h ([1]; FeSSIF, 37 °C, equilibration for 0.5 h, HPLC, read-out: solubility (concentration of Compound I in filtrate)): 10.1 mg/mL (≈ 20.6 mM); solubility at 0.5 h ([1]; fassif, 37 °C, equilibration for 0.5 h, HPLC, read-out: solubility (concentration of Compound I in filtrate)): 16.1 mg/mL (≈ 32.9 mM); Solid form ([3]; 25 °C/60%RH, 8 months): Form CSVI; Solid form ([3]; 40 °C/75%RH, 8 months): Form CSVI; Solid form ([3]; 60 °C/75%RH, 2 months): Form CSVI |
